According to US20100311714A1, “1H-IMIDAZO[4,5-c]QUINOLINONE COMPOUNDS” (priority 2009, published 2010):
Converted amounts (≈) assume the structure as drawn.

Experiments:
[1] = High-throughput equilibrium solubility at pH 6.8; type: physicochemical; conditions: pH 6.8, aqueous buffer, thermodynamic from solid; read-out: HT-Eq Sol/pH 6.8
From the text: The physicochemical properties of relevance for the absorption of the compound, such as the solubility and the membrane permeability, especially at a pH close to neutral pH can be measured using the procedure as described by L. ZHOU et al. in JOURNAL OF PHARMACEUTICAL SCIENCES, VOL. 96, NO. 11, p. 3052-3071 (2007) for the solubility at pH 6.8 and the procedure as described by F. Wohnsland and B. Faller in Journal of Medicinal Chemistry Vol 44, p. 923-930 (2001) for the Parallel Artificial Membrane Permeability Assay (PAMPA) at pH 6.8.

[2] = system: PKB Ser473 phosphorylation in Rat1-myr-HA-p110 alpha cells; assay: Reverse protein array, PKB Ser473 phosphorylation in Rat1-myr-HA-p110 alpha cells; type: cell-based; conditions: Rattus norvegicus, 0.5 h, 30 minutes compound incubation, read-out: p-PKB/IC50_alpha

CNc1cc(-c2ccc3ncc4c(c3c2)n(-c2cccnc2C)c(=O)n4C)cnc1C [Example 2.32, 3-Methyl-8-(6-methyl-5-methylamino-pyridin-3-yl)-1-(2-methyl-pyridin-3-yl)-1,3-dihydro-imidazo[4,5-c]quinolin-2-one]
solubility thermodynamic [1]: 0.127 mg/mL (≈ 309 µM) | IC50 [2]: < 0.00457 µM

Cc1ncccc1-n1c(=O)n(C)c2cnc3ccc(-c4cncc(N)c4)cc3c21 [Example 2.25, 8-(5-Amino-pyridin-3-yl)-3-methyl-1-(2-methyl-pyridin-3-yl)-1,3-dihydro-imidazo[4,5-c]quinolin-2-one]
solubility thermodynamic [1]: 0.228 mg/mL (≈ 596 µM) | IC50 [2]: 0.0363 µM

COCc1ncc(-c2ccc3ncc4c(c3c2)n(-c2ccc(N3CCC3)nc2C)c(=O)n4C)cc1OC(C)C [Example 23.2, 1-(6-Azetidin-1-yl-2-methyl-pyridin-3-yl)-8-(5-isopropoxy-6-methoxymethyl-pyridin-3-yl)-3-methyl-1,3-dihydro-imidazo[4,5-c]quinolin-2-one]
solubility thermodynamic [1]: 0.264 mg/mL (≈ 503 µM) | IC50 [2]: 0.0248 µM

COc1ccc(-c2ccc3ncc4c(c3c2)n(-c2cccnc2C)c(=O)n4C)cc1OC [Example 2.9, 8-(3,4-Dimethoxy-phenyl)-3-methyl-1-(2-methyl-pyridin-3-yl)-1,3-dihydro-imidazo[4,5-c]quinolin-2-one]
solubility thermodynamic [1]: 0.012 mg/mL (≈ 28.1 µM) | IC50 [2]: 0.0084 µM

CCOc1ccc(-c2ccc3ncc4c(c3c2)n(-c2ccc(F)nc2C)c(=O)n4C)cn1 [Example 7.3, 8-(6-Ethoxy-pyridin-3-yl)-1-(6-fluoro-2-methyl-pyridin-3-yl)-3-methyl-1,3-dihydro-imidazo[4,5-c]quinolin-2-one]
solubility thermodynamic [1]: 0.002 mg/mL (≈ 4.66 µM) | IC50 [2]: 0.0422 µM

Cc1ncccc1-n1c(=O)n(C)c2cnc3ccc(-c4ccc(N)nc4)cc3c21 [Example 2.7, 8-(6-Amino-pyridin-3-yl)-3-methyl-1-(2-methyl-pyridin-3-yl)-1,3-dihydro-imidazo[4,5-c]quinolin-2-one]
solubility thermodynamic [1]: 0.017 mg/mL (≈ 44.5 µM) | IC50 [2]: 0.0116 µM

Cc1nc(N2CCC2)ccc1-n1c(=O)n(C)c2cnc3ccc(-c4cncc(N5CCC5)c4)cc3c21 [Example 23.1, 1-(6-Azetidin-1-yl-2-methyl-pyridin-3-yl)-8-(5-azetidin-1-yl-pyridin-3-yl)-3-methyl-1,3-dihydro-imidazo[4,5-c]quinolin-2-one]
solubility thermodynamic [1]: 0.022 mg/mL (≈ 46.1 µM) | IC50 [2]: 0.0211 µM

CCOc1ncc(-c2ccc3ncc4c(c3c2)n(-c2ncccc2C)c(=O)n4C)cn1 [Example 3.1, 8-(2-Ethoxy-pyrimidin-5-yl)-3-methyl-1-(3-methyl-pyridin-2-yl)-1,3-dihydro-imidazo[4,5-c]quinolin-2-one]
solubility thermodynamic [1]: 0.039 mg/mL (≈ 94.6 µM) | IC50 [2]: 0.632 µM

Cc1nc(N(C)CCO)ccc1-n1c(=O)n(C)c2cnc3ccc(-c4cnc(N)c(C(F)(F)F)c4)cc3c21 [Example 26.1, 8-(6-Amino-5-trifluoromethyl-pyridin-3-yl)-1-{6-[(2-hydroxy-ethyl)-methyl-amino]-2-methyl-pyridin-3-yl}-3-methyl-1,3-dihydro-imidazo[4,5-c]quinolin-2-one]
solubility thermodynamic [1]: 0.004 mg/mL (≈ 7.64 µM) | IC50 [2]: < 0.00457 µM

Cc1nc(F)ccc1-n1c(=O)n(C)c2cnc3ccc(-c4cncc(C(C)(C)O)c4)cc3c21 [Example 7.8, 1-(6-Fluoro-2-methyl-pyridin-3-yl)-8-[5-(1-hydroxy-1-methyl-ethyl)-pyridin-3-yl]-3-methyl-1,3-dihydro-imidazo[4,5-c]quinolin-2-one]
solubility thermodynamic [1]: 0.372 mg/mL (≈ 839 µM) | IC50 [2]: 0.0145 µM

CNc1ncc(-c2ccc3ncc4c(c3c2)n(-c2ncccc2C)c(=O)n4C)cn1 [Example 3.4, 3-Methyl-8-(2-methylamino-pyrimidin-5-yl)-1-(3-methyl-pyridin-2-yl)-1,3-dihydro-imidazo[4,5-c]quinolin-2-one]
solubility thermodynamic [1]: 0.011 mg/mL (≈ 27.7 µM) | IC50 [2]: 0.226 µM

CNc1ccc(-c2ccc3ncc4c(c3c2)n(-c2ccc(F)nc2C)c(=O)n4C)cn1 [Example 7.4, 1-(6-Fluoro-2-methyl-pyridin-3-yl)-3-methyl-8-(6-methylamino-pyridin-3-yl)-1,3-dihydro-imidazo[4,5-c]quinolin-2-one]
solubility thermodynamic [1]: 0.011 mg/mL (≈ 26.5 µM) | IC50 [2]: 0.00718 µM

CNC(=O)c1ccc(-c2ccc3ncc4c(c3c2)n(-c2ncccc2C)c(=O)n4C)cc1 [Example 3.5, N-Methyl-4-[3-methyl-1-(3-methyl-pyridin-2-yl)-2-oxo-2,3-dihydro-1H-imidazo[4,5-c]quinolin-8-yl]-benzamide]
solubility thermodynamic [1]: 0.01 mg/mL (≈ 23.6 µM) | IC50 [2]: 0.0927 µM

Cc1nc(C(F)(F)F)ccc1-n1c(=O)n(C)c2cnc3ccc(-c4cncc(C(C)(C)O)c4)cc3c21 [Example 33.1, 8-[5-(1-Hydroxy-1-methyl-ethyl)-pyridin-3-yl]-3-methyl-1-(2-methyl-6-trifluoromethyl-pyridin-3-yl)-1,3-dihydro-imidazo[4,5-c]quinolin-2-one]
solubility thermodynamic [1]: 0.423 mg/mL (≈ 857 µM) | IC50 [2]: 0.019 µM

Cc1ncccc1-n1c(=O)n(C)c2cnc3ccc(-c4cncc(NC(C)C)c4)cc3c21 [Example 2.24, 8-(5-Isopropylamino-pyridin-3-yl)-3-methyl-1-(2-methyl-pyridin-3-yl)-1,3-dihydro-imidazo[4,5-c]quinolin-2-one]
solubility thermodynamic [1]: 0.196 mg/mL (≈ 462 µM) | IC50 [2]: 0.0222 µM

CCNc1ncc(-c2ccc3ncc4c(c3c2)n(-c2ccc(N3CC[C@@H](O)C3)nc2C)c(=O)n4C)cc1COCC [Example 34.4, 8-(5-Ethoxymethyl-6-ethylamino-pyridin-3-yl)-1-[6-((R)-3-hydroxy-pyrrolidin-1-yl)-2-methyl-pyridin-3-yl]-3-methyl-1,3-dihydro-imidazo[4,5-c]quinolin-2-one]
solubility thermodynamic [1]: 0.172 mg/mL (≈ 311 µM) | IC50 [2]: 0.035 µM

CCOc1ccc(-c2ccc3ncc4c(c3c2)n(-c2ccc(C(C)(C)O)nc2C)c(=O)n4C)cn1 [Example 31.4, 8-(6-Ethoxy-pyridin-3-yl)-1-[6-(1-hydroxy-1-methyl-ethyl)-2-methyl-pyridin-3-yl]-3-methyl-1,3-dihydro-imidazo[4,5-c]quinolin-2-one]
solubility thermodynamic [1]: 0.005 mg/mL (≈ 10.6 µM)

Cc1nc(C(C)(C)O)ccc1-n1c(=O)n(C)c2cnc3ccc(-c4cnc(N)c(C(F)(F)F)c4)cc3c21 [Example 31.5, 8-(6-Amino-5-trifluoromethyl-pyridin-3-yl)-1-[6-(1-hydroxy-1-methyl-ethyl)-2-methyl-pyridin-3-yl]-3-methyl-1,3-dihydro-imidazo[4,5-c]quinolin-2-one]
solubility thermodynamic [1]: 0.003 mg/mL (≈ 5.9 µM)

COc1cc(-c2ccc3ncc4c(c3c2)n(-c2cccnc2C)c(=O)n4C)cnc1C(OC)OC [Example 2.27, 8-(6-Dimethoxymethyl-5-methoxy-pyridin-3-yl)-3-methyl-1-(2-methyl-pyridin-3-yl)-1,3-dihydro-imidazo[4,5-c]quinolin-2-one]
solubility thermodynamic [1]: > 0.472 mg/mL | IC50 [2]: 0.1 µM

Cc1cccnc1-n1c(=O)n(C)c2cnc3ccc(-c4ccc(N(C)C)nc4)cc3c21 [Example 3.11, 8-(6-Dimethylamino-pyridin-3-yl)-3-methyl-1-(3-methyl-pyridin-2-yl)-1,3-dihydro-imidazo[4,5-c]quinolin-2-one]
solubility thermodynamic [1]: 0.039 mg/mL (≈ 95 µM) | IC50 [2]: 0.372 µM

CCOc1cc(-c2ccc3ncc4c(c3c2)n(-c2ccc(N3CCC3)nc2C)c(=O)n4C)cnc1COC [Example 23.5, 1-(6-Azetidin-1-yl-2-methyl-pyridin-3-yl)-8-(5-ethoxy-6-methoxymethyl-pyridin-3-yl)-3-methyl-1,3-dihydro-imidazo[4,5-c]quinolin-2-one]
solubility thermodynamic [1]: 0.069 mg/mL (≈ 135 µM) | IC50 [2]: 0.0373 µM

CNc1ncc(-c2ccc3ncc4c(c3c2)n(-c2ccc(N3CC[C@H](O)C3)nc2C)c(=O)n4C)cc1F [Example 32.2, 8-(5-Fluoro-6-methylamino-pyridin-3-yl)-1-[6-((S)-3-hydroxy-pyrrolidin-1-yl)-2-methyl-pyridin-3-yl]-3-methyl-1,3-dihydro-imidazo[4,5-c]quinolin-2-one]
solubility thermodynamic [1]: 0.007 mg/mL (≈ 14 µM) | IC50 [2]: 0.0081 µM

COc1nc(N2CCNCC2)ccc1-n1c(=O)n(C)c2cnc3ccc(-c4cnc(N)c(C(F)(F)F)c4)cc3c21 [Example 9.2, 8-(6-Amino-5-trifluoromethyl-pyridin-3-yl)-1-(2-methoxy-6-piperazin-1-yl-pyridin-3-yl)-3-methyl-1,3-dihydro-imidazo[4,5-c]quinolin-2-one]
solubility thermodynamic [1]: 0.013 mg/mL (≈ 23.6 µM) | IC50 [2]: 0.0339 µM

Cc1nc(C(C)(C)O)ccc1-n1c(=O)n(C)c2cnc3ccc(-c4cncc(C5(C#N)CCC5)c4)cc3c21 [Example 31.8, 1-(5-{1-[6-(1-Hydroxy-1-methyl-ethyl)-2-methyl-pyridin-3-yl]-3-methyl-2-oxo-2,3-dihydro-1H-imidazo[4,5-c]quinolin-8-yl}-pyridin-3-yl)-cyclobutanecarbonitrile]
solubility thermodynamic [1]: 0.111 mg/mL (≈ 220 µM)

CCNc1ncc(-c2ccc3ncc4c(c3c2)n(-c2ccc(C(C)(C)O)nc2C)c(=O)n4C)cn1 [Example 31.7, 8-(2-Ethylamino-pyrimidin-5-yl)-1-[6-(1-hydroxy-1-methyl-ethyl)-2-methyl-pyridin-3-yl]-3-methyl-1,3-dihydro-imidazo[4,5-c]quinolin-2-one]
solubility thermodynamic [1]: 0.014 mg/mL (≈ 29.8 µM)

Cc1nc(C(C)(C)O)ccc1-n1c(=O)n(C)c2cnc3ccc(-c4cncc(C(C)(C)C#N)c4)cc3c21 [Example 31.6, 2-(5-{1-[6-(1-Hydroxy-1-methyl-ethyl)-2-methyl-pyridin-3-yl]-3-methyl-2-oxo-2,3-dihydro-1H-imidazo[4,5-c]quinolin-8-yl}-pyridin-3-yl)-2-methyl-propionitrile]
solubility thermodynamic [1]: 0.003 mg/mL (≈ 6.09 µM)
